Source: patent EP3696281A1, “ARGINASE AS BIOMARKER AND DRUG TARGET FOR PCOS” (Johann Wolfgang Goethe-Universität Frankfurt am Main, priority 2019, dated 2020)

Columns and labels:
washed human platelets = experiment: Aggregation of washed human platelets elicited by thrombin or U46619 (aggregometer); format: cell-based; conditions: 5 minutes; for effect of pre-treatment with arginase inhibitor on arginine-mediated inhibition of platelet aggregation: pre-incubation with inhibitor (Nor-NOHA 100 µmol/L, 30 minutes), then arginine 1 mmol/L, thrombin or U46619; for thrombin or thromboxane A2 analogue-induced aggregation of platelets: arginine 1 mmol/L, alone
Text: (§1) Levels of ornithine (A), arginine (B), and the ratio of ornithine to arginine (C) in plasma from healthy donors or from PCOS patients, n= 22 (Student's t test). (D) Arginase activity in plasma from healthy donors or from PCOS patients, n=16 (Student's t test). (E) Levels of arginase-i in plasma from healthy donors or from PCOS patients, n=16 (Student's t test). (F) Levels of arginase-i in plasma from healthy donors or from PCOS patients in the presence or in the absence of microparticles, n=16 (ANOVA and Newman-Keuls post-test). (G) Levels of platelet-derived microparticles (PMPs) in plasma from healthy donors or from PCOS patients, n=17 (Student's t test). (H) Levels of arginase-i measured by flow cytometry in PMPs from healthy donors and from PCOS patients, n=17.
Human platelets were obtained by centrifugation (900g, 7 minutes) of platelet-rich plasma, as described. […] The resulting platelet-poor plasma was collected and frozen at -80°C for further evaluation.
Platelet aggregation. Aggregation of washed human platelets (4x10^8platelets/mL) was measured using an 8-channel aggregometer (PAP8, Mölab, Germany).

arginase = experiment: Arginase activity in platelets incubated with arginase inhibitor, then lysed (MAK112 kit); format: cell-based, human; conditions: 30 minutes, P<0.05
Text: as §1, with “n=17. […]” for “n=17.”
Given that platelets are the main source of plasma arginase in PCOS patients, the effect of arginase inhibitor on platelet arginase activity and function was assessed. […]
Arginase activity was determined in plasma or in platelets using commercially available kits (MAK112, Sigma, Steinheim, Germany), according to manufacturer's instructions.

Row | Structure (SMILES) | effect of pre-treatment with arginase inhibitor on arginine-mediated inhibition of platelet aggregation (washed human platelets; platelets from PCOS patients) | effect of pre-treatment with arginase inhibitor on arginine-mediated inhibition of platelet aggregation (washed human platelets; platelets from healthy donors) | arginase activity (arginase; platelets incubated with L-norvaline 10 mmol/L) | thrombin or thromboxane A2 analogue-induced aggregation of platelets (washed human platelets; platelets from PCOS patients) | thrombin or thromboxane A2 analogue-induced aggregation of platelets (washed human platelets; platelets from healthy donors) | arginase activity (arginase; platelets incubated with nor-NOHA 100 µmol/L)
1 | CCC[C@H](N)C(=O)O [L-norvaline] | significantly revealed the inhibitory effects of arginine | did not have additional effect on arginine-mediated platelet inhibition | significantly inhibited arginase activity | – | – | –
2 | N=C(N)NCCC[C@H](N)C(=O)O [arginine] | – | – | – | did not affect the aggregation | inhibited thrombin or thromboxane A2 analogue-induced aggregation | –
3 | N=C(NO)NCC[C@H](N)C(=O)O [NorNOHA, Nω-hydroxy-nor-L-arginine] | significantly revealed the inhibitory effects of arginine | did not have additional effect on arginine-mediated platelet inhibition | – | – | – | significantly inhibited arginase activity
